Test results as given in patent US11412771B2, “Composition to improve athletic performance by supporting muscle protein synthesis and mental focus” (The Amino Company LLC, priority 2019, dated 2022).
Where two headings read alike, the source gives them in different places. Values belong to the molecule of their own block, whether it stands above or below them.

Key:
[1] = format: in vivo, human
Method: FIG. 2 depicts a graph showing leucine, lysine, and phenylalanine oxidation in human subjects at rest and during prolonged aerobic exercise (approximately 30% VO2 max for 105 minutes). Error bars represent standard error of mean (SE) assessed via ANOVA.
EXAMPLE 2. […] 1982, 52(2):458-66 and Wolfe et al., J APPL PHYSIOL RESPIR ENVIRON EXERC PHYSIOL. 1984, 56(1):221-9, both the disclosures of which are herein incorporated by reference in their entirety. Total leucine oxidation increased from 0.38±0.05 to 1.41±0.14 μmol·kg^−1·min^−1 during exercise due to increases in the oxidation of plasma leucine (150%) and intracellular leucine (600%) (FIG. 2). […] These findings provided a rational for providing extra leucine, as well as other branched chain amino acids, before exercise.

[2] = tested on: nitric oxide (NO) synthesis; assay: In vivo kinetics of nitric oxide (NO) metabolism after citrulline ingestion (stable isotope tracer); parameters: species or system human; conditions: 3 grams; for NO synthesis rate after citrulline ingestion: after 3 hours; for De novo arginine synthesis after citrulline ingestion: over 3 hours
Method: FIGS. 6A-B depicts graphs showing plasma arginine concentration (FIG. 6A) and nitric oxide (NO) synthesis (FIG. 6B) in human subjects over 3 hours following citrulline ingestion (3 grams) wherein the subjects were either elderly (n=8, 77±9 years of age, 93±4 kg) or young individuals (n=8, 27±9 years of age, 70±5 kg).
EXAMPLE 5. A kinetic study with a stable isotope tracer method was performed to determine in vivo kinetics of nitric oxide (NO) metabolism in relation to citrulline ingestion in older adult humans (n=8, 77±9 years, 93±4 kg) and in young adult humans (n=8, 27±9 years, 70±5 kg). In the fasted state, NO synthesis (expressed per kg fat free mass) was ˜50% lower in older vs. young adults and was related to a decreased rate of appearance of the NO precursor arginine. Citrulline ingestion (3 grams) stimulated de novo arginine synthesis in both older (6.88±0.83 to 35.40±4.90 μmol·kg body wt^−1·h^−1) and, to a greater extent, in young adults (12.02±1.01 to 66.26±4.79 μmol·kg body wt^−1 h^−1) over 3 hours (FIG. 6A). NO synthesis rate increased correspondingly in older (0.17±0.01 to 2.12±0.36 μmol·kg body wt^−1·h^−1) and, to a greater extent, in young adults (0.36±0.04 to 3.57±0.47 μmol·kg body wt^−1·h^−1) after 3 hours (FIG. 6B). […] Because arginine can play a role in stimulating muscle protein synthesis as well as increasing blood flow via NO synthesis, the data strongly support citrulline ingestion for acute as well as long-term promotion of muscle function.

- Total leucine oxidation ([1]; human, in vivo): 0.38 ± 0.05 µmol/kg/min
- Increase in the oxidation of intracellular leucine ([1]; human, in vivo, 105 min): 600%
- Increase in the oxidation of plasma leucine ([1]; human, in vivo, 105 min): 150%
- Total leucine oxidation ([1]; human, in vivo, 105 min): 1.41 ± 0.14 µmol/kg/min
Compound: CC(C)C[C@H](N)C(=O)O [leucine]
- Plasma leucine flux ([1]; not told): decreased slightly, but not significantly

Compound: NC(=O)NCCC[C@H](N)C(=O)O [Citrulline, citrulline]
- NO synthesis rate after citrulline ingestion ([2]; older adults, basal 0.17±0.01): 2.12±0.36 μmol·kg body wt^−1·h^−1
- De novo arginine synthesis after citrulline ingestion ([2]; older adults, basal 6.88±0.83): 35.40±4.90 μmol·kg body wt^−1·h^−1
- NO synthesis rate after citrulline ingestion ([2]; young adults, basal 0.36±0.04): 3.57±0.47 μmol·kg body wt^−1·h^−1
- De novo arginine synthesis after citrulline ingestion ([2]; young adults, basal 12.02±1.01): 66.26±4.79 μmol·kg body wt^−1 h^−1

Compound: NCCCC[C@H](N)C(=O)O [lysine]
- Oxidation, change from rest to exercise ([1]; in vivo): did not change significantly

- Oxidation, change from rest to exercise ([1]; in vivo): did not change significantly
Compound: N[C@@H](Cc1ccccc1)C(=O)O [phenylalanine]
